Data reported in paper PMC8869984, “Multifunctional Silver(I) Complexes with Metronidazole Drug Reveal Antimicrobial Properties and Antitumor Activity against Human Hepatoma and Colorectal Adenocarcinoma Cells” (Cancers, 2022).
≈ marks a conversion by molar mass, not a printed value. Where two headings read alike, the source gives them in different places.

Assays:
[1] = tested on: S. epidermidis ATCC 12228; assay: micro-dilution broth method (MIC, MBC); format: cell-based, Staphylococcus epidermidis
[2] = tested on: B. fragilis ATCC 10240; assay: micro-dilution broth method (MIC, MBC); format: cell-based, Bacteroides fragilis
[3] = tested on: P. aeruginosa ATCC 9027; assay: micro-dilution broth method (MIC, MBC); format: cell-based, Pseudomonas aeruginosa
[4] = tested on: C. jejunii ATCC 33291; assay: micro-dilution broth method (MIC, MBC); format: cell-based, Campylobacter jejunii
[5] = tested on: P. mirabilis ATCC 12453; assay: micro-dilution broth method (MIC, MBC); format: cell-based, Proteus mirabilis
[6] = tested on: B. subtilis ATCC 6633; assay: micro-dilution broth method (MIC, MBC); format: cell-based, Bacillus subtilis
[7] = tested on: P. intermedia ATCC 25611; assay: micro-dilution broth method (MIC, MBC); format: cell-based
[8] = tested on: C. perfringens ATCC 13124; assay: microbe, parasite or virus in culture; format: cell-based, Clostridium perfringens
[9] = tested on: K. pneumoniae ATCC 13883; assay: micro-dilution broth method (MIC, MBC); format: cell-based, Klebsiella pneumoniae
[10] = tested on: A. israeli ATCC 10049; assay: micro-dilution broth method (MIC, MBC); format: cell-based, Actinomyces israelii
[11] = tested on: F. nucleatum ATCC 25586; assay: micro-dilution broth method (MIC, MBC); format: cell-based, Fusobacterium nucleatum
[12] = tested on: Balb/c 3T3 cells; assay: NRU assay (lysosomal activity), 72 h exposure; format: cell-based, murine; conditions: Mus musculus, BALB/c3T3, Balb/c 3T3, NRU, mean ± SD, n = 3
Protocol: (§1) The human hepatoma (HepG2) and colorectal adenocarcinoma (Caco-2) cells were purchased from the American Type Culture Collection: ATCC HB-8065 and ATCC HTB-37, respectively. These cells were cultured in Minimum Essential Medium Eagle (MEME) (ATCC). The murine fibroblasts cell line (Balb/c 3T3 clone A31) (gift from the Department of Swine Diseases of the National Veterinary Research Institute in Pulawy) was cultured in Dulbecco’s Modified Eagle Medium (DMEM) (ATCC). The media were supplemented with 10% BCS (Balb/c 3T3), 10% FBS (HepG2), 20% FBS (Caco-2), 1% L-glutamine, 1% antibiotic solution. The cells were maintained in 75 cm^2 cell culture flasks (NUNC) in a humidified incubator at 37 °C in an atmosphere of 5% CO2. The medium was refreshed every two or three days, and the cells were trypsinized by 0.25% trypsin–0.02% EDTA after reaching 70–80% confluence. Single cell suspensions were prepared and adjusted to a density of 2 × 10^5 cell/mL^−1 (HepG2), 1 × 10^5 cell/mL^−1 (Caco-2) and 5 × 10^4 cell/mL^−1 (Balb/c 3T3). The cell suspension was transferred to 96-well plates (100 µL/well) and incubated for 24 h before the exposure to the studied compounds. Stock solutions of ligands and metal complexes were prepared in sterile water and diluted with culture medium to obtain a concentration range from 0.1 to 10 µM. The final concentration of sterile water was 0.1% in the medium. […] As a negative control, cultured cells were grown in the absence of studied compounds. Each concentration was tested in six replicates in three independent experiments. Cytotoxicity was assessed after 72 h of exposure of the cells to compounds. The medium was not changed during the incubation time.
This method is based on staining living cells with neutral red, which readily diffuses through the plasma membrane and accumulates in lysosomes. […] After 10 min of shaking, the absorbance of the dissolved NR was measured using a Synergy HTX multi-mode reader (BioTek® Instruments Inc., Winooski, VT, USA) at 540 nm using a blank as a reference. Cytotoxicity was expressed as a percentage of the negative control. […]

[13] = tested on: HepG2 cells; assay: LDH leakage assay (membrane integrity), 72 h exposure; format: cell-based, human; conditions: Homo sapiens, mean ± SD, n = 3
Protocol: as §1
The integrity of the plasma membrane was assessed through the test of lactate dehydrogenase (LDH) release, which was monitored using the commercially available Cytotoxicity Detection Kit (LDH) (Roche Diagnostics, Warsaw, Poland). […] The absorbance was measured at 492 nm in a microplate reader Synergy HTX multi-mode reader (BioTek® Instruments Inc., Winooski, VT, USA) using a blank as a reference. […]

[14] = S. epidermidis ATCC 12228, value in brackets
[15] = B. fragilis ATCC 10240, value in brackets
[16] = P. aeruginosa ATCC 9027, value in brackets
[17] = C. jejunii ATCC 33291, value in brackets
[18] = P. mirabilis ATCC 12453, value in brackets
[19] = B. subtilis ATCC 6633, value in brackets
[20] = P. intermedia ATCC 25611, value in brackets
[21] = C. perfringens ATCC 13124, value in brackets
[22] = K. pneumoniae ATCC 13883, value in brackets
[23] = A. israeli ATCC 10049, value in brackets
[24] = F. nucleatum ATCC 25586, value in brackets
[25] = Clostridium perfringens, ATCC13124
[26] = Fusobacterium nucleatum, ATCC25586

Structure (SMILES): O=[N+]([O-])[O-].[Ag+] [AgNO3, Silver nitrate]
- MBC ([1]; S. epidermidis ATCC 12228): 15.6 mg/L
- MIC ([1]; S. epidermidis ATCC 12228): 3.9 mg/L
- MBC [1, 14]: 0.09 µM/mL
- MIC [1, 14]: 0.025 µM/mL
- MBC ([2]; B. fragilis ATCC 10240): 62.5 mg/L
- MIC ([2]; B. fragilis ATCC 10240): 15.6 mg/L
- MBC [2, 15]: 0.37 µM/mL
- MIC [2, 15]: 0.09 µM/mL
- MBC ([3]; P. aeruginosa ATCC 9027): 3.9 mg/L
- MIC ([3]; P. aeruginosa ATCC 9027): 3.9 mg/L
- MBC [3, 16]: 0.025 µM/mL
- MIC [3, 16]: 0.025 µM/mL
- MBC ([4]; C. jejunii ATCC 33291): 125 mg/L
- MIC ([4]; C. jejunii ATCC 33291): 62.5 mg/L
- MBC [4, 17]: 0.74 µM/mL
- MIC [4, 17]: 0.37 µM/mL
- MBC ([5]; P. mirabilis ATCC 12453): 15.6 mg/L
- MIC ([5]; P. mirabilis ATCC 12453): 7.8 mg/L
- MBC [5, 18]: 0.09 µM/mL
- MIC [5, 18]: 0.049 µM/mL
- MBC ([6]; B. subtilis ATCC 6633): 15.6 mg/L
- MIC ([6]; B. subtilis ATCC 6633): 15.6 mg/L
- MBC [6, 19]: 0.09 µM/mL
- MIC [6, 19]: 0.09 µM/mL
- MBC ([7]; P. intermedia ATCC 25611): 0.49 mg/L
- MIC ([7]; P. intermedia ATCC 25611): 0.49 mg/L
- MBC [7, 20]: 0.003 µM/mL
- MIC [7, 20]: 0.003 µM/mL
- MBC ([8]; C. perfringens ATCC 13124): 62.5 mg/L
- MIC ([8]; C. perfringens ATCC 13124): 62.5 mg/L
- MBC [8, 21]: 0.37 µM/mL
- MIC [8, 21]: 0.37 µM/mL
- MBC ([9]; K. pneumoniae ATCC 13883): 7.8 mg/L
- MIC ([9]; K. pneumoniae ATCC 13883): 7.8 mg/L
- MBC [9, 22]: 0.049 µM/mL
- MIC [9, 22]: 0.049 µM/mL
- MBC ([10]; A. israeli ATCC 10049): 0.49 mg/L
- MIC ([10]; A. israeli ATCC 10049): 0.49 mg/L
- MBC [10, 23]: 0.003 µM/mL
- MIC [10, 23]: 0.003 µM/mL
- MBC ([11]; F. nucleatum ATCC 25586): 0.98 mg/L
- MIC ([11]; F. nucleatum ATCC 25586): 0.49 mg/L
- MBC [11, 24]: 0.006 µM/mL
- MIC [11, 24]: 0.003 µM/mL

Structure (SMILES): Cc1ncc([N+](=O)[O-])n1CCO [MTZ, 2-Methyl-5-nitroimidazole-1-ethanol]
- MBC [1, 14]: 2.93 µM/mL
- MIC [1, 14]: 2.93 µM/mL
- MBC ([1]; Staphylococcus epidermidis, ATCC12228, S. epidermidis ATCC 12228, read-out: MBC): 500 mg/L (≈ 2920 µM)
- MIC ([1]; Staphylococcus epidermidis, ATCC12228, S. epidermidis ATCC 12228, read-out: MIC): 500 mg/L (≈ 2920 µM)
- IC50 [12]: > 10 µM
- MBC [2, 15]: 0.003 µM/mL
- MIC [2, 15]: 0.003 µM/mL
- MBC ([2]; Bacteroides fragilis, ATCC10240, B. fragilis ATCC 10240, read-out: MBC): 0.49 mg/L (≈ 2.86 µM)
- MIC ([2]; Bacteroides fragilis, ATCC10240, B. fragilis ATCC 10240, read-out: MIC): 0.49 mg/L (≈ 2.86 µM)
- MBC [3, 16]: > 5.85 µM/mL
- MIC [3, 16]: > 5.85 µM/mL
- MBC ([3]; Pseudomonas aeruginosa, ATCC9027, P. aeruginosa ATCC 9027, read-out: MBC): > 1000 mg/L
- MIC ([3]; Pseudomonas aeruginosa, ATCC9027, P. aeruginosa ATCC 9027, read-out: MIC): > 1000 mg/L
- MBC [4, 17]: > 5.85 µM/mL
- MIC [4, 17]: 2.93 µM/mL
- MBC ([4]; Campylobacter, ATCC33291, C. jejunii ATCC 33291, read-out: MBC): > 1000 mg/L
- MIC ([4]; Campylobacter, ATCC33291, C. jejunii ATCC 33291, read-out: MIC): 500 mg/L (≈ 2920 µM)
- MBC [6, 19]: 1.46 µM/mL
- MIC [6, 19]: 0.73 µM/mL
- MBC ([6]; Bacillus subtilis, ATCC6633, B. subtilis ATCC 6633, read-out: MBC): 250 mg/L (≈ 1460 µM)
- MBC [7, 20]: > 5.85 µM/mL
- MIC [7, 20]: 5.85 µM/mL
- MBC ([7]; Prevotella intermedia, ATCC25611, P. intermedia ATCC 25611, read-out: MBC): > 1000 mg/L
- MIC ([7]; Prevotella intermedia, ATCC25611, P. intermedia ATCC 25611, read-out: MIC): 1000 mg/L (≈ 5840 µM)
- MBC [8, 21]: 0.01 µM/mL
- MIC [8, 21]: 0.01 µM/mL
- MBC [8, 25]: 1.95 mg/L (≈ 11.4 µM)
- MIC [8, 25]: 1.95 mg/L (≈ 11.4 µM)
- IC50 [13]: > 10 µM
- MBC [9, 22]: 5.85 µM/mL
- MIC [9, 22]: 5.85 µM/mL
- MBC ([9]; Klebsiella pneumoniae, ATCC13883, K. pneumoniae ATCC 13883, read-out: MBC): 1000 mg/L (≈ 5840 µM)
- MIC ([9]; Klebsiella pneumoniae, ATCC13883, K. pneumoniae ATCC 13883, read-out: MIC): 1000 mg/L (≈ 5840 µM)
- MBC [10, 23]: > 5.85 µM/mL
- MIC [10, 23]: > 5.85 µM/mL
- MBC ([10]; Actinomyces israelii, ATCC10049, A. israeli ATCC 10049, read-out: MBC): > 1000 mg/L
- MIC ([10]; Actinomyces israelii, ATCC10049, A. israeli ATCC 10049, read-out: MIC): > 1000 mg/L
- MBC [11, 24]: 0.01 µM/mL
- MIC [11, 24]: 0.01 µM/mL
- MBC [11, 26]: 1.95 mg/L (≈ 11.4 µM)
- MIC [11, 26]: 1.95 mg/L (≈ 11.4 µM)
